A word on the IC50: it is the concentration that gives 50% inhibition.

These results are taken from US7531506B2, “Process for producing trunkamide a compounds” (Pharma Mar, S.A., priority 2001, dated 2009).

What all share (assay type): cell-based
Assay [1] concerns MEL-28 human melanoma. In words: Cytotoxicity, MEL28 cells. The conditions noted are these: MEL-28 human melanoma cells; read-out: Cytoxicity IC50 MEL28. The source says: (§1) Cytoxicity of trunkamide A and derivatives IC50 (molar).
(§2) Methodology: after Berjeron et al, Biochem and Bioph Res. Comm., 1984, 121, 3,848854 388=Murine lymphoma. A549=lung carcinoma. . HT-29=human colon carcinoma MEL-28=human melanoma. DU145=human prostate carcinoma.

For assay [2], the system named is HT-29 human colon carcinoma. Description: Cytotoxicity, HT29 cells. The conditions noted are these: HT-29 human colon carcinoma cells; read-out: Cytoxicity IC50 HT29.
Source text: as §1, §2

Assay [3] relates to A549 human lung carcinoma. Description: Cytotoxicity, A549 cells. The conditions noted are these: read-out: Cytoxicity IC50 A549.
Source text: as §1, §2

Assay [4] deals with P388 murine lymphoma. In words: Cytotoxicity, P388 cells. Conditions: read-out: Cytoxicity IC50 P388.
Source text: as §1, §2

The test system of assay [5] is DU145 human prostate carcinoma. In words: Cytotoxicity, DU145 cells. Conditions: read-out: Cytoxicity IC50 DU145.
Source text: as §1, §2

*1 amine or outer side, *2 acyl side, *3 side chain or, on linkers, in order; H or OH if unused. Where a SMILES comes first, the peptide text is derived from it. [ ]: non-standard residue; d: D form. The star is where a group is joined. X1 = O=C([C@@H]1CSC([C@@H](Cc2ccccc2)N[*:1])=N1)[*:2]; X2 = C=CC(C)(C)O[C@H](C)C(N[*:1])C(=O)[*:2]; Allyl(1,1-Me2) = C=CC(C)(C)*

“Cyclo [Compound 10, Cyclo [L-Phe-Tzn-Thr(rPr)-Ser(rPr)-Ile-Ala-Pro]]”: the IC50 in assay [1], in assay [2], in assay [3], in assay [4] and in assay [5] was 1200 nM each time.
Take “Cyclo [Compound 11, Cyclo [L-Phe-Tzn-Thr (tBu)-Ser(tBu)-Ile-Ala-Pro]]”: the concentration for half-maximal inhibition (IC50) in assay [1], in assay [2], in assay [3], in assay [4] and in assay [5] was greater than 6200 nM in each case.
Consider “Cyclo [Compound 12, Cyclo [L-Phe-Oxa-Thr(tBu)-Ser(tBu)-Ile-Ala-Pro]]”, for which the IC50 in assay [1] is greater than 6100 nM; in assay [2] it was 3100 nM; in assay [3] it was 3100 nM; in assay [4], 3100 nM; in assay [5] it was greater than 6100 nM.
Take `C=CC(C)(C)OC[C@@H]1NC(=O)C([C@@H](C)OC(C)(C)C=C)NC(=O)[C@@H]2CSC(=N2)[C@@H](Cc2ccccc2)NC(=O)[C@@H]2CCCN2C(=O)[C@H](C)NC(=O)[C@H]([C@@H](C)CC)NC1=O` (stereo partly drawn) [Compound 9, Cyclo[D-Phe-Tzn-Thr(rPr)-Ser(rPr)-Ile-Ala-Pro]] (cyclo(AP[X1][X2]S(Allyl(1,1-Me2))I)): the half-inhibitory concentration (IC50) worked out at 12000 nM in assay [1]; 1200 nM in assay [2]; 1200 nM in assay [3]; 1200 nM in assay [4]; 1200 nM in assay [5].
